No end group written: not given here.
Columns and labels:
[1] = tested on: A. baumannii ATCC19606; test: Skin abscess infection mouse model; format: in vivo, mice; details: for anti-infective activity four days after the treatment, reduction of load of A. baumannii cells / anti-infective activity two days post-treatment: skin infection, peptides onto the abscess at their MIC; for anti-infective activity versus parent peptides: skin scarification mouse model
Experimental: Skin abscess infection mouse model. The anti-infective activity of the peptides VmCT1, temporin A, VT, and TV against A. baumannii ATCC19606 was evaluated as described by Torres et al.^82. Bacteria were grown in tryptic soy broth medium to an optical density of 0.5 at 600 nm. Cells were washed twice with sterile phosphate buffered saline (pH 7.4, 13,000 rpm for 1 min) and resuspended to a final concentration of 1×10^7 CFU/20 μL. To generate the skin infection, female CD-1 mice (6 weeks-old) were first anesthetized with isoflurane and their backs were shaved. A superficial linear abrasion was made with a needle on the shaved area to injure only the stratum corneum and the upper layer of the epidermis. An aliquot of 20 μL suspension containing 1×10^7 CFU of A. baumannii was then inoculated over the wound area with a pipette tip. The next day, the infected area was inoculated with the peptides (VmCT1, temporin A, VT, and TV), which were administered onto the abscess at their MIC. The animals were euthanized, and the scarified skin area removed 2- and 4-days post-infection. The excised area was homogenized using a bead beater for 20 min (25 Hz) and serially diluted for CFU quantification. Two independent experiments were carried out with 3 mice per group in each condition.

[2] = Circular dichroism, helical fraction (Lifson-Roig); format: physicochemical; details: peptide 50 μmol L^−1; for Helical fraction (fH) PBS: PBS 10 mmol L^−1, pH 7.4; for Helical fraction (fH) POPC: POPC 10 mmol L^−1; for Helical fraction (fH) POPC:DOPE: POPC:DOPE 3:1, mol:mol; for Helical fraction (fH) POPC:DOPE / Helical fraction (fH) POPC:POPG: 10 mmol L^−1; for Helical fraction (fH) POPC:POPG: POPC:POPG 3:1, mol:mol; for Helical fraction (fH) SDS: SDS 20 mmol L^−1 in water; for Helical fraction (fH) TFE/Water: TFE in water (3:2, v:v)
Experimental: Method. Circular dichroism (CD) assays were performed with a Spectropolarimeter Jasco Mod. J-815 (JascoCorp). CD spectra were obtained in Far-UV (195-260 nm), and analyzed in the following solutions: water, 2,2,2-trifluoroethanol (TFE) in water (3:2, v:v), phosphate buffer saline (PBS, 10 mmol L^−1, pH 7.4), sodium dodecyl sulfate (SDS 20 mmol L^−1) in water, palmitoyloleoylphosphatidylcholine (POPC; 10 mmol L^−1), palmitoyloleoylphosphatidylcholine:dioleylphosphatidylethanolamine (POPC:DOPE; 3:1, mol:mol, 10 mmol L^−1) and palmitoyloleoylphosphatidylcholine:palmitoyloleoylphosphatidylglycerol (POPC:POPG; 3:1, mol:mol, 10 mmol L^−1) at a peptide concentration of 50 μmol L^−1. These experiments were performed as described in detail by Pedron et al.^62.

[3] = tested on: A. baumannii ATCC19606; test: DiSC3(5) assay, cytoplasmic membrane depolarization; format: cell-based; details: peptides at their MIC
Experimental: Method. The cytoplasmatic membrane depolarization activity of two of the naturally occurring peptides (VmCT1 and temporin A) and two of the hybrids (VT and TV) was determined at their MIC by performing the membrane potential-sensitive dye DiSC3(5), as reported previously^105, 106. A. baumannii ATCC19606 cells were grown at 37° C. with agitation to an optical density of 600 nm (OD600) of 0.5, centrifuged, washed twice with buffer (5 mmol L^−1 HEPES, 20 mmol L^−1 glucose, pH 7.2), and resuspended to an OD600 of 0.05 in the same buffer but containing 0.1 mol L^−1 KCl. Cells (100 μL) were incubated for 15 minutes with 20 nmol L^−1 of DiSC3(5) until a stable reduction in fluorescence was observed, indicating the incorporation of the DiSC3(5) into the bacterial membrane. After adding the peptides (100 μL solution at 1.2 μmol L^−1), membrane depolarization was determined by the change observed in the fluorescence emission intensity of the dye at λex=622 nm and […].

[4] = tested on: skin tissue; test: Skin tissue histopathological analysis (H&E); format: in vivo, mice; details: 24 h after infection and treatment
Experimental: Skin tissue histopathological analysis. […] The fur on the back of the mice was removed and the mice were infected and treated as described in the Skin abscess infection mouse model section. After 24 h, mice were euthanized for tissue collection. Samples were pre-fixed in individual cassettes, then transferred to a container filled with 70% EtOH for slicing and staining. Next, the samples were placed on glass slides for microscopy analysis. We collected the tissue from three mice per condition analyzed.

[5] = Resistance to degradation in fetal bovine serum; format: in vitro ADME; details: for remaining at 0.5 h / remaining peptide, 30 min: 30 min; for remaining at 0.5 h: read-out: remaining peptide, 30 min
Experimental: The resistance to proteolytic degradation of the hybrid peptides was assessed by exposing them for 6 h to serum peptidases in a fetal bovine serum solution^68, 69 (FIG. 5a and Table S4). The peptide degradation kinetics were calculated by integrating the peak area of the peak in relation to the peptide at the beginning of the experiment (time=0) and comparing it to the integrated peak area relative to the peptides after exposure to the enzymes at time points: 0.5, 1, 2, 4, and 6 h (FIG. 5a and Table S4). […] However, AV was resistant to degradation against proteases, with almost 40% peptide content remaining after 4 h of exposure (FIG. 5a and Table S4). […] VP was almost entirely degraded after 30 min (22% of peptide remaining). […] D-amino acid substitutions have been used as alternatives to prevent the degradation of AMPs. For example, Qiu et. al. described a protonectin analog with a D-Lys residue in position 10 as an alternative to protonectin; this analog is not degraded and has higher antimicrobial activity against bacteria and fungi than the original peptide.
Methods. Stability assays were performed following the protocol described by Torres et al.^71. Briefly, a peptide solution was added to GIBCO fetal bovine serum diluted to 25% in water and kept at 37° C. The degradation kinetics were monitored by liquid chromatography and the percentage of peptide remaining was calculated by integrating the peptide peak area. The experiments were performed as three independent replicates, and aliquots were taken at 0, 0.5, 1, 2, 4, and 6 h.

[6] = tested on: MCF-7 human breast cancer cells; test: Anticancer activity, MTT assay; format: cell-based; details: for MCF-7 4 h LD50 / MCF-7 24 h LD50: MTT
Experimental: The anticancer activity assays were performed using MCF-10A human breast epithelial cells and MCF-7 mammary cancer cells as previously described by Pedron et al. 86. Briefly, the day before treatment, the cells were incubated at 37° C. and 5% CO2 for 24 h. The cells were treated with peptides ranging from 12.5 to 100 μmol L^−1 (MCF10-A cells) and 0.8 to 100 μmol L^−1 (MCF-7 cells) for 4 h and 24 h at 37° C., and cell viability was measured using 3-(4,5-Dimethylthiazol-2-yl)-2,5-diphenyltetrazolium bromide (MTT) assays 87. Three independent replicates were performed in each case.

[7] = bovine, fetal bovine serum, 25% in water, fetal bovine serum 25% in water, 37° C.
[8] = fetal bovine serum 25% in water, 37° C.

| Substance | anti-infective activity four days after the treatment, reduction of load of A. baumannii cells [1] | anti-infective activity two days post-treatment [1] | anti-infective activity versus parent peptides [1] | Helical fraction (fH) PBS [2] | Helical fraction (fH) POPC [2] | Helical fraction (fH) POPC:DOPE [2] | Helical fraction (fH) POPC:POPG [2] | Helical fraction (fH) SDS [2] | Helical fraction (fH) TFE/Water [2] | Helical fraction (fH) Water [2] | cytoplasmic membrane depolarization, DiSC3(5) fluorescence [3] | tissue morphology / toxicity, H&E staining [4] | remaining at 0.5 h [5, 7] [%] | remaining peptide, 30 min [5, 8] | MCF-7 4 h LD50 [6] [µmol/L] | MCF-7 24 h LD50 [6] [µmol/L] | also measured |
| --- | --- | --- | --- | --- | --- | --- | --- | --- | --- | --- | --- | --- | --- | --- | --- | --- | --- |
| FLPLLWRVASGVF-NH2 [VT, Phe-Leu-Pro-Leu-Leu-Trp-Arg-Val-Ala-Ser-Gly-Val-Phe] | the same effect as the two parent peptides | increased anti-infective activity when compared to the parent peptides | more potent than that of either parent peptides | 0.18 | 0.45 | 0.42 | 1.00 | 0.82 | 1.00 | 0.21 | depolarized the cytoplasmic membrane |  |  |  |  |  |  |
| FLGAIGNVLKSIL-NH2 [TV, Phe-Leu-Gly-Ala-Ile-Gly-Asn-Val-Leu-Lys-Ser-Ile-Leu] | two orders of magnitude | increased anti-infective activity when compared to the parent peptides | more potent than that of either parent peptides | 0.04 | 0.12 | 0.35 | 0.06 | 0.28 | 0.50 | 0.04 | depolarized the cytoplasmic membrane | Neither TV nor VmCT1 changed the tissue's morphology |  |  |  |  |  |
| ILGAILNVLKSLG-NH2 [PV, Ile-Leu-Gly-Ala-Ile-Leu-Asn-Val-Leu-Lys-Ser-Leu-Gly] |  |  |  | 0.08 | 0.44 | 0.28 | 0.63 | 0.60 | 0.68 | 0.13 |  |  | ~90 | ~ 90% |  |  | time of exposure after which totally degraded ([5]; fetal bovine serum): 1 h |
| FLGALWNVAKSVF-NH2 [VmCT1, Phe-Leu-Gly-Ala-Len-Trp-Asu-Val-Ala-Lys-Ser-Val-Phe, reference compound] |  |  |  | 0.03 | 0.42 | 0.55 | 0.25 | 0.17 | 0.30 | 0.05 |  | Neither TV nor VmCT1 changed the tissue's morphology | ~20 | approximately 20% | 50 | 12.5 | remaining at 1 h ([5]; bovine, fetal bovine serum, 25% in water, fetal bovine serum 25% in water, 37° C., 1 h, read-out: remaining peptide, 1 h): < 10%; remaining at 2 h ([5]; bovine, fetal bovine serum, 25% in water, fetal bovine serum 25% in water, 37° C., 2 h, read-out: remaining peptide, 2 h): < 10%; remaining peptide, 1 h ([5]; fetal bovine serum 25% in water, 37° C., 1 h): less than 10%; concentration with activity against MCF-7 human breast cancer cells ([6]; incubation time not stated): 50 µmol/L |
| FLPLIGRVLSGIL-NH2 [Temporin A, Phe-Leu-Pro-Leu-Ile-Gly-Arg-Val-Leu-Ser-Gly-Ile-Leu, reference compound] |  |  |  | 0.07 | 0.31 | 0.44 | 0.19 | 0.47 | 0.65 | 0.08 |  |  |  |  | 50 | 50 |  |

— patent US20260250337A1, “HYBRID ANTIMICROBIAL PEPTIDES” (UNIVERSIDADE FEDERAL DO ABC, priority 2023, published 2026)
